Measurements: patent publication US20240417393A1, “CERTAIN 2,5-DIAZABICYCLO[4.2.0]OCTANES AS GLP-1 RECEPTOR MODULATORS” (ASTRAZENECA AB, priority 2021, published 2024)

How the values were obtained:
[1] = target: T1, GLP-1R in a pancreatic insulinoma cell line (EndoC-PH1) (Homo sapiens, UniProt P43220); experiment: EndoC cAMP Accumulation Assay (HTRF); type: cell-based; conditions: EndoC-PH1 human pancreatic beta cell line, endogenous GLP-1R, 30 min at rt
T1 construct: host or cells: EndoC-βH1 human pancreatic beta cell line
T1 sequence (P43220 24-463): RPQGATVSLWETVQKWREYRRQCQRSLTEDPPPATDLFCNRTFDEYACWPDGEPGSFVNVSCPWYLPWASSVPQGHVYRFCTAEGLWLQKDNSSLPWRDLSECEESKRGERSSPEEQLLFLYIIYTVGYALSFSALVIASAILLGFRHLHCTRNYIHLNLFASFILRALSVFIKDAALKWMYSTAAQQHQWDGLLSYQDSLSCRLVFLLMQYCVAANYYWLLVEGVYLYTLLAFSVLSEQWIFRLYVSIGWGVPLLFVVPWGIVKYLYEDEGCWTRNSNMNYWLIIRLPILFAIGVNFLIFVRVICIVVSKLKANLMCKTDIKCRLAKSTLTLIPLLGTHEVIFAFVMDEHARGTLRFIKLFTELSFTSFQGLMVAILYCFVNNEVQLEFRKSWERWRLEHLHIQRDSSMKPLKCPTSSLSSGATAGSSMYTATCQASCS
Description: EndoC cAMP Accumulation Assay
A HTRF cAMP assay (cAMP Gs dynamic kit; CisoBio Cat #62AM4PEJ) was used to identify agonists of GLP-1R in a pancreatic insulinoma cell line (EndoC-PH1). […] EndoC-PHlcells have detectable GLP-1R messenger ribonucleic acid (mRNA) as detected by quantitative polymerase chain reaction (qPCR). […] The EndoC-PH1 cell line is a valid model of human beta cells and applicable for screenings to identify novel drug target candidates (Mol. Metab., 2018, 8, 144-157). CisBio HTRF cAMP kits are based on a competitive immunoassay using cryptate-labelled anti-cAMP antibody and d2-labeled cAMP. The detection kit is intended for the direct is quantitative determination of cAMP. The specific signal (i.e. energy transfer) is inversely proportional to the concentration of cAMP in the standard or sample. Test compounds (10 mM in DMSO) were diluted into assay buffer (HBSS (Sigma #H8264) supplemented with 25 mM HEPES (Gibco #15630, pH 7.4), 0.1% BSA (Sigma #A3059) and 0.5 mM IBMX (Sigma #I7018) included fresh on the day of the assay) into 96 well U-bottom plates (Greiner #650201). Diluted compounds were transferred to ECHO source polypropelene plates (Labcyte #P-05525) and dose response curves were dispensed acoustically using ECHO 550 into black shallow-well u-bottom 384-well HTRF Assay Plates (Corning 4514). Cryovials of EndoC-H1 (supplied at 1×10e^7 cells/vial) were used directly for screening. The cryovials and were removed from N2(1) and thawed rapidly in a 37° C. water bath. The cells were resuspended in assay buffer and centrifuged at 300 g for 5 min. Cells were resuspended in assay buffer at the appropriate concentration, typically at 12e5 cells per mL (3000 cells per well, dependent on cell batch) and 2.5 μL diluted cells were added to all wells of destination plate by Multidrop combi reagent dispenser (Thermofisher). The plates were incubated at rt for 30 min. The assay was stopped by adding 2.5 μL anti-cAMP cryptate solution to all wells and 2.5 μL cAMP-d2 solution (both diluted 1:20 in lysis buffer) to columns 1-22 by Combi drop. A volume of 2.5 μL cAMP-d2 solution was added to wells E23 to P24 and 2.5 μL lysis buffer added to wells A23 to D24 by multichannel pipette. The plates were incubated at rt for 1 h and read on an Envision plate reader using excitation wavelength of 320 nm and emission of […] and 660 nm.
Raw data from Envision is converted to % DeltaF according to the manufacturer's instructions. Dose response curves are analysed via 4-Parameter Logistical Analysis and assay plate Z’ values obtained. Samples are graphed as percentage (%) activation plots compared to […] with assay window defined by negative control as basal cell is cAMP levels and positive control are defined by maximum GIP (82.5 nM) signal. GLP-1 (7-36 amide, Bachem H-6795) dose response curve was included on all plates.

human GLP-1R receptor = target: T2, human GLP-1R receptor (Homo sapiens, UniProt P43220, L260F); experiment: CHOK1 GLP-1R cAMP Assay (HTRF); type: cell-based; conditions: CHO-K1 cells stably expressing human GLP-1R (Leu260Phe variant), 20 min at rt
T2 construct: expressed in transfected cells; host or cells: CHO-K1 (ATCC CCL-61)
T2 sequence (P43220 24-463 L260F): as the sequence (P43220 24-463) above, with L237F counted along it
Protocol: A cell line stably expressing the human GLP-1R receptor (NM_002062.5, including the naturally-occurring variant Leu260Phe) in a CHO-K1 (ATCC® CCL-61™) was used for assay.
GLP-1 receptor mediated agonist activity was determined in a cell-based assay measuring cyclic adenosine monophosphate (cAMP) levels in cells using Homogeneous Time-Resolved Fluorescence (HTRF) cAMP detection kit (CisBio catalog #62AM4PEC, cAMP Gs Dynamic range kit). The cAMP detection method is based on a competitive immunoassay, in which cAMP produced by the cells and cAMP labeled with the dye d2 compete for binding to a Europium-Cryptate-labeled anti-cAMP antibody. The specific HTRF signal is inversely proportional to the concentration of cAMP.
Compounds were added to individual well in 384 well-assay plates (Greiner #784076) using an Echo (LabCyte) dispenser from 10 mM stocks. Varying concentration of compounds were added to wells, and DMSO was used to normalize each well to a volume of 100 nL. A dose response curve of GLP-1(7-36)NH2 (Bachem H-6795) was included in each run. 5 μL of cAMP concentration response standards are applied in specified wells in the assay plates. Cryo-preserved cells are thawed and resuspended in assay buffer pre-heated to 37° C. (20 mM 2-[4-(2-hydroxyethyl)piperazin-1-yl]ethanesulfonic acid (HEPES) pH 7.4, 1× Hank's Balanced Salt Solution (HBSS, Life Technologies #14065) supplemented with 0.1% (w/v) bovine serum albumin (Sigma, A-7030)). Cells were centrifuged at 250*g for 5 min at rt, and resuspended in room tempered assay buffer to a final density of 0.16*10^6 cell/mL, to deliver 800 cells/well. 5 μL of assay buffer with 1 mM 3-isobutyl-1-methylxanthin (IBMX; Sigma cat I-7018) was dispensed per well in assay plates using a multidrop combi (Thermo Scientific) subsequently 5 μL of cell suspension was distributed to relevant wells in the assay using a multidrop dispenser. Assay plates were incubated 20 min at rt.
Detection reagents, Europium-Cryptate-labeled anti-cAMP antibody and cAMP labeled with the dye d2, are diluted in lysis buffer, provided by the manufacturer. 5 μL of each detection reagent is supplemented to each assay well using a multidrop dispenser. Assay plates are incubated in the dark for at least one h. The HTRF signal is measured using the HTRF module (excitation: 337 nm, emission A: 665 nm and emission B: 620 nm) in Pherastar FSX (BMG Labtech).
Raw data were converted to pM cAMP using the cAMP standard curve included in each run. Converted data were further analyzed in Genedata Screener (Genedata) and EC50 determinations were made from agonist dose-response curves analyzed with a curve fitting is program using a 4-parameter logistic dose response equation (Equation y=A+((B-A)/1+((C/x)^D))) where A is no stimulation, B is full stimulation, C is the EC50 and D is the Hill slope). The percent effect was determined relative to a saturating concentration of a full GLP-1R agonist (GLP-1(7-36)NH2 has 100% effect in this assay setup).

Row | Structure (SMILES) | EC50 [1] | EC50 (human GLP-1R receptor)
1 | C[C@]1(c2ccc(Cl)cn2)Oc2cccc(N3CCN(Cc4nc5c(Cl)cc(C(=O)O)cc5n4CC4(CC#N)CC4)[C@H]4CC[C@@H]43)c2O1 (single isomer, unassigned) [Example 26a] | 450 nM | 350 nM
2 | C[C@]1(c2ccc(Cl)cc2F)Oc2cccc(N3CCN(Cc4nc5ccc(C(=O)O)cc5n4C[C@@H]4CCO4)[C@H]4CC[C@@H]43)c2O1 (single isomer, unassigned) [Example 21a, 2-(((1R*,6R*)-5-((R*)-2-(4-Chloro-2-fluorophenyl)-2-methylbenzo[d][1,3]dioxol-4-yl)-2,5-diazabicyclo[4.2.0]octan-2-yl)methyl)-1-(((S)-oxetan-2-yl)methyl)-1H-benzo[d]imidazole-6-carboxylic acid] | 7.3 nM | 7 nM
3 | COc1cc2nc(CN3CCN(c4cccc5c4OC(C)(c4ccc(Cl)cn4)O5)[C@H]4CC[C@@H]43)n(C[C@@H]3CCO3)c2cc1C(=O)O (mixture of isomers) [Example 12, 2-(((1RS,6RS)-5-(2-(5-Chloropyridin-2-yl)-2-methylbenzo[d][1,3]dioxol-4-yl)-2,5-diazabicyclo[4.2.0]octan-2-yl)methyl)-5-methoxy-1-(((S)-oxetan-2-yl)methyl)-1H-benzo[d]imidazole-6-carboxylic acid] | 320 nM | 200 nM
4 | COc1cc(C(=O)O)cc2c1nc(CN1CCN(c3cccc4c3O[C@@](C)(c3ccc(Cl)cn3)O4)[C@@H]3CC[C@@H]31)n2C[C@@H]1CCCO1 (single isomer, unassigned) [Example 8d] | 370 nM | 93 nM
5 | C[C@]1(c2ccc(Cl)cn2)Oc2cccc(N3CCN(Cc4nc5c(F)cc(C(=O)O)cc5n4CC4(CC#N)CC4)[C@H]4CC[C@@H]43)c2O1 (single isomer, unassigned) [Example 23b] | 85 nM | 27 nM
6 | CC1(c2ccc(Cl)cn2)Oc2cccc(N3CCN(Cc4nc5c(F)cc(C(=O)O)cc5n4CCOC4CC4(F)F)[C@H]4CC[C@@H]43)c2O1 (mixture of isomers) [Example 14, rac-2-(((1R,6R)-5-(2-(5-Chloropyridin-2-yl)-2-methylbenzo[d][1,3]dioxol-4-yl)-2,5-diazabicyclo[4.2.0]octan-2-yl)methyl)-1-(2-(2,2-difluorocyclopropoxy)ethyl)-4-fluoro-1H-benzo[d]imidazole-6-carboxylic acid] | 38 nM | 45 nM
7 | C[C@]1(c2ccc(Cl)cc2F)Oc2cccc(N3CCN(Cc4nc5c(F)cc(C(=O)O)cc5n4C[C@@H]4CCO4)[C@H]4CC[C@H]43)c2O1 (single isomer, unassigned) [Example 9c, 2-(((1R*,6S*)-5-((R*)-2-(4-Chloro-2-fluorophenyl)-2-methylbenzo[d][1,3]dioxol-4-yl)-2,5-diazabicyclo[4.2.0]octan-2-yl)methyl)-4-fluoro-1-(((S)-oxetan-2-yl)methyl)-1H-benzo[d]imidazole-6-carboxylic acid] | 74 nM | 28 nM
8 | C[C@]1(c2ccc(Cl)cn2)Oc2cccc(N3CCN(Cc4nc5c(F)cc(C(=O)O)cc5n4CC4(C#N)CC4)[C@H]4CC[C@@H]43)c2O1 (single isomer, unassigned) [Example 24a] | 16 nM | 32 nM
9 | C[C@]1(c2ccc(Cl)cn2)Oc2cccc(N3CCN(Cc4nc5c(Cl)cc(C(=O)O)cc5n4C[C@@H]4CCO4)[C@H]4CC[C@H]43)c2O1 (single isomer, unassigned) [Example 20c, 4-Chloro-2-(((1R*,6S*)-5-((R*)-2-(5-chloropyridin-2-yl)-2-methylbenzo[d][1,3]dioxol-4-yl)-2,5-diazabicyclo[4.2.0]octan-2-yl)methyl)-1-(((S)-oxetan-2-yl)methyl)-1H-benzo[d]imidazole-6-carboxylic acid] | 2.2 nM | 0.81 nM
10 | C[C@]1(c2ccc(Cl)cc2F)Oc2cccc(N3CCN(Cc4nc5c(F)cc(C(=O)O)cc5n4C[C@@H]4CCO4)[C@H]4CC[C@H]43)c2O1 (single isomer, unassigned) [Example 9a] | 340 nM | 57 nM
11 | COc1cc(C(=O)O)cc2c1nc(CN1CCN(c3cccc4c3O[C@@](C)(c3ccc(Cl)cn3)O4)[C@@H]3CC[C@@H]31)n2C[C@@H]1CCCO1 (relative stereo) [Example 8b, 2-((1R*,6S*)-5-(R*)-2-(5-Chloropyridin-2-yl)-2-methylbenzo[d][1,3]dioxol-4-yl)-2,5-diazabicyclo[4.2.0]octan-2-yl)methyl)-4-methoxy-1-(((S)-tetrahydrofuran-2-yl)methyl)-1H-benzo[d]imidazole-6-carboxylic acid] | 590 nM | 400 nM
12 | CCn1ccnc1Cn1c(CN2CCN(c3cccc4c3O[C@@](C)(c3ccc(Cl)cn3)O4)[C@H]3CC[C@@H]32)nc2c(Cl)cc(C(=O)O)cc21 (single isomer, unassigned) [Example 10c] | 1000 nM | 240 nM
13 | C[C@]1(c2ccc(Cl)cn2)Oc2cccc(N3CCN(Cc4nc5c(F)cc(C(=O)O)cc5n4CC4(CC#N)CC4)[C@H]4CC[C@@H]43)c2O1 (single isomer, unassigned) [Example 23c] | 360 nM | 140 nM
14 | C[C@]1(c2ccc(Cl)cn2)Oc2cccc(N3CCN(Cc4nc5c(Cl)cc(C(=O)O)cc5n4CC4(CC#N)CC4)[C@H]4CC[C@@H]43)c2O1 (single isomer, unassigned) [Example 26c] | 160 nM | 64 nM
15 | C[C@]1(c2ccc(Cl)cn2)Oc2cccc(N3CCN(Cc4nc5ccc(C(=O)O)cc5n4C[C@@H]4CCO4)[C@H]4CC[C@H]43)c2O1 (single isomer, unassigned) [Example 5c] | 1800 nM | 180 nM
